Measurements reported in paper PMC12605013, “SAG1.3-derived Frizzled-targeting small-molecule compounds” (The Journal of Biological Chemistry, 2025).

T1: Nluc-FZD6 (Homo sapiens, UniProt O60353)
T1 construct: expressed in transfected cells; host or cells: ΔSMO HEK293A or ΔFZD1–10 HEK293T cells (screen); ΔFZD1–10 HEK293T cells (concentration–response curves)
T1 sequence (O60353 19-706): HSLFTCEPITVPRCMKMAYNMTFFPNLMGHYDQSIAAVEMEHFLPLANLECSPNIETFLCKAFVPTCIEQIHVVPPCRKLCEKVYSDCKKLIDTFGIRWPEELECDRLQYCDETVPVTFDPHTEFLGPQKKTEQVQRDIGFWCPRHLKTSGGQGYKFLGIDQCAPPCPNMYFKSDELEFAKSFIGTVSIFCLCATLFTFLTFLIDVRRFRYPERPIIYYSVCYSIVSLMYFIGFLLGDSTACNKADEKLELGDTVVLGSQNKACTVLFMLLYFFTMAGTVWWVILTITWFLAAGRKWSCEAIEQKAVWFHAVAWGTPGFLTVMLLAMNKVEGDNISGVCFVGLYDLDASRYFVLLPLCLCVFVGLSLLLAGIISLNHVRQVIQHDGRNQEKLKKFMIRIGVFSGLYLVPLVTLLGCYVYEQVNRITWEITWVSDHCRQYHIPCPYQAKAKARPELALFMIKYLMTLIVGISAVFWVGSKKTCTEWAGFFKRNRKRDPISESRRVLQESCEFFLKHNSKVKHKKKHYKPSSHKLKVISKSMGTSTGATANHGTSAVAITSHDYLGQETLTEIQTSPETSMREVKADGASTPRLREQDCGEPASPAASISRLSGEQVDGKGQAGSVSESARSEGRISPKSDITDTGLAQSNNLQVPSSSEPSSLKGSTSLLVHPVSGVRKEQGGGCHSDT

B1: vantictumab: monoclonal antibody binding to five of 10 FZD paralogs (antibody, chains of the INN, looked up, V domains shown)
VH: EVQLVESGGGLVQPGGSLRLSCAASGFTFSHYTLSWVRQAPGKGLEWVSVISGDGSYTYYADSVKGRFTISSDNSKNTLYLQMNSLRAEDTAVYYCARNFIKYVFANWGQGTLVTVSS
VL: DIELTQPPSVSVAPGQTARISCSGDNIGSFYVHWYQQKPGQAPVLVIYDKSNRPSGIPERFSGSNSGNTATLTISGTQAEDEADYYCQSYANTLSLVFGGGTKLTVL

What was measured:
Nluc-FZD6 = target: T1, Nluc-FZD6; assay: BRET-based BODIPY-cyclopamine competition binding at Nluc-FZD6 in live HEK293 cells; conditions: for Displacement @ 10 µM compound (Nluc-FZD6) ΔBRET / Displacement %: BODIPY-cyclopamine 300 nM, 10 µM compound
Procedure: After 24 h, cells were washed once with Hanks' balanced salt solution (HBSS), followed by the addition of 80 μl of HBSS. Next, 10 μl of the competitive ligand, that is, the tested SAG1.3 derivative (either in different concentrations for the concentration–response curves or at a final concentration of 10 μM for the first screens) and 10 μl of the fluorescent tracer BODIPY–cyclopamine (final concentration: 300 nM for the first screens, 200 nM for the concentration–response experiments) were added. All serial dilutions were prepared in HBSS. The cells were incubated for 90 min at 37 °C without additional CO2, after which 10 μl of luciferase substrate diluted in HBSS (furimazine; Promega, N1572, final dilution: 1:1000 for first screening) and coelenterazine h (Biosynth; final concentration: 5 μM for concentration–response experiments) were added to the cells. Following a 10 min incubation period in the dark, the measurement was started on a BMG Labtech ClarioStar or TECAN Spark multimode microplate reader, prewarmed to 37 °C. Nluc bioluminescence was detected between 460 and 490 nm (ClarioStar) or 460 and 500 nm (TECAN Spark). The emission of the fluorescent tracer was detected between 520 and 550 nm (ClarioStar) or between 520 and 560 nm (TECAN Spark).
For each binding experiment, the measurement was repeated five times and averaged for the analysis. ΔBRET values were obtained by subtracting the BRET ratio obtained in wells containing BODIPY–cyclopamine but no competitive ligand (100% value). The BRET values for full displacement were defined using “donor-only” control wells, which contained Nluc-FZDx-transfected cells but no BODIPY–cyclopamine.
For the full concentration–response BRET binding curves in Figure 2, BRET values were normalized (separately for each experiment) to control wells containing BODIPY–cyclopamine but no competitive ligand (100% value) and “donor-only” wells (0% value, described previously). […] Obtained IC50 values were transformed to pIC50 values, which were subsequently averaged between experiments. Displacement curves showing the non-normalized data (ΔBRET values generated as described previously) can be found in Fig. S2.
Shown are mean values and SDs from N independent experiments (N = 2-8) performed in duplicate.
Shown are mean values ± SEM from N independent experiments performed in triplicate.

FZD6 = test system: FZD6; set-up: method as in PMID 31964872, PMID 34168128; conditions: ref [18], [24]; cited from earlier work
[1] = set-up: method as in PMID 31338636, PMID 32803633; conditions: ref [14], [54]; cited from earlier work
[2] = BMG Labtech ClarioStar reader (complete tracer displacement: net BRET = -0.02736)
[3] = BODIPY-cyclopamine 200 nM, ΔFZD1-10 HEK293T cells
[4] = TECAN Spark reader (complete tracer displacement: net BRET = -0.03823)

| Molecule | pIC50 (Nluc-FZD6) mean ± SEM (Nluc-FZD6; [3]) | Displacement % (Nluc-FZD6; TECAN Spark reader) [%] | Displacement @ 10 µM compound (Nluc-FZD6) ΔBRET (Nluc-FZD6; [4]) | also measured |
| --- | --- | --- | --- | --- |
| O=C(N[C@H]1CC[C@H](N(Cc2cccc(-c3ccncc3)c2)C(=O)c2sc3ccccc3c2Cl)CC1)c1ccco1 [compound 10] | 5.29 ± 0.02 | – | – | Displacement @ 10 µM compound (Nluc-FZD6) ΔBRET (Nluc-FZD6; [2]): -0.0207; Displacement % (Nluc-FZD6; ClarioStar reader): 75.5% |
| CC(C)C(=O)Nc1cccc(C(=O)N[C@H]2CC[C@H](N(Cc3cccc(-c4ccncc4)c3)C(=O)c3sc4ccccc4c3Cl)CC2)c1 [compound 15, 3-Chloro-N-((1r,4r)-4-(3-isobutyramidobenzamido)cyclohexyl)-N-(3-(pyridin-4-yl)benzyl)benzo[b]thiophene-2-carboxamide] | 5.13 ± 0.16 | 70.1 | -0.0268 | – |
| CN[C@H]1CC[C@H](N(Cc2cccc(-c3ccncc3)c2)C(=O)c2sc3ccccc3c2Cl)CC1.Cl.Cl [SAG1.3, 3-chloro-N-[trans-4-(methylamino)cyclohexyl]-N-[[3-(4-pyridinyl)phenyl]methyl]-benzo[b]thiophene-2-carboxamide dihydrochloride] | – | 38.7 | -0.0148 | Efficacy at FZD6 (FZD6): very low efficacy; Potency at FZD6 (FZD6): double-digit micromolar potency; Displacement @ 10 µM compound (Nluc-FZD6) ΔBRET (Nluc-FZD6; [2]): -0.0099; Displacement % (Nluc-FZD6; ClarioStar reader): 36.1% |
| Nc1ccc(C(=O)N[C@H]2CC[C@H](N(Cc3cccc(-c4ccncc4)c3)C(=O)c3sc4ccccc4c3Cl)CC2)nn1 [compound 23, 6-Amino-N-((1r,4r)-4-(3-chloro-N-(3-(pyridin-4-yl)benzyl)benzo[b]thiophene-2-carboxamido)cyclohexyl)pyridazine-3-carboxamide] | 5.54 ± 0.03 | 85.8 | -0.0328 | – |
| O=C(N[C@H]1CC[C@H](N(Cc2cccc(-c3ccncc3)c2)C(=O)c2sc3ccccc3c2Cl)CC1)c1ccncc1Cl [compound 21, 3-Chloro-N-((1r,4r)-4-(3-chloro-N-(3-(pyridin-4-yl)benzyl)benzo[b]thiophene-2-carboxamido)cyclohexyl)isonicotinamide] | 5.44 ± 0.05 | 78.2 | -0.0299 | – |
| CN1CCC(C(=O)Nc2cccc(C(=O)N[C@H]3CC[C@H](N(Cc4cccc(-c5ccncc5)c4)C(=O)c4sc5ccccc5c4Cl)CC3)c2)CC1 [compound 17, N-(3-(((1r,4r)-4-(3-Chloro-N-(3-(pyridin-4-yl)benzyl)benzo[b]thiophene-2-carboxamido)cyclohexyl)-carbamoyl)phenyl)-1-methylpiperidine-4-carboxamide] | 5.49 ± 0.04 | 73.6 | -0.0281 | – |
| CCC(=O)Nc1cccc(C(=O)N[C@H]2CC[C@H](N(Cc3cccc(-c4ccncc4)c3)C(=O)c3sc4ccccc4c3Cl)CC2)c1 [compound 14, 3-Chloro-N-((1r,4r)-4-(3-propionamidobenzamido)cyclohexyl)-N-(3-(pyridin-4-yl)benzyl)benzo[b]thiophene-2-carboxamide] | 5.57 ± 0.17 | 75.9 | -0.0290 | – |
| O=C(NC1CCC(N(Cc2ccc(-c3cccnc3)cc2)C(=O)c2sc3ccccc3c2Cl)CC1)c1ccco1 (stereo not shown) [compound 52, N-(4-(3-Chloro-N-(4-(pyridin-3-yl)benzyl)benzo[b]thiophene-2-carboxamido)cyclohexyl)furan-2-carboxamide] | – | – | – | Displacement @ 10 µM compound (Nluc-FZD6) ΔBRET (Nluc-FZD6; [2]): -0.0194; Displacement % (Nluc-FZD6; ClarioStar reader): 70.9%; IC50 (Nluc-FZD6; BODIPY-cyclopamine 200 nM, ΔFZD1-10 HEK293T cells, read-out: pIC50 (Nluc-FZD6) mean ± SEM (converted)): 8.71 µM |
| O=C(CN1CCOCC1)Nc1cccc(C(=O)N[C@H]2CC[C@H](N(Cc3cccc(-c4ccncc4)c3)C(=O)c3sc4ccccc4c3Cl)CC2)c1 [compound 19, 3-Chloro-N-((1r,4r)-4-(3-(2-morpholinoacetamido)benzamido)cyclohexyl)-N-(3-(pyridin-4-yl)benzyl)benzo[b]thiophene-2-carboxamide] | 5.71 ± 0.04 | 87.6 | -0.0335 | – |
| CN1CCN(CC(=O)Nc2cccc(C(=O)N[C@H]3CC[C@H](N(Cc4cccc(-c5ccncc5)c4)C(=O)c4sc5ccccc5c4Cl)CC3)c2)CC1 [compound 18, 3-Chloro-N-((1r,4r)-4-(3-(2-(4-methylpiperazin-1-yl)acetamido)benzamido)cyclohexyl)-N-(3-(pyridin-4-yl)benzyl)benzo[b]thiophene-2-carboxamide] | 5.50 ± 0.04 | 81.1 | -0.0310 | – |
| B1 | – | – | – | Reason for dismissal in phase Ib clinical trials [1]: bone toxicity |
